This is an account of results in patent publication US20230338391A1, “TREATMENT FOR DEPRESSION” (TAKEDA PHARMACEUTICAL COMPANY LIMITED, priority 2020, published 2023).

A short description of data set [1]: 13-week NHP GLP toxicity study: clinical signs, EEG/EMG telemetry, pathology. The data set is classed as in vivo, Monkey (Macaca fascicularis). The note with it: cynomolgus monkey, in vivo, oral gavage once daily, 13 weeks, read-out: no-observed-adverse-effect level (NOAEL). The procedure: (§1) The appropriate volume of reverse osmosis water was added into a suitable sized container and heated between 70° C. and 90° C. An appropriate amount of MC (METOLOSE SM-100, Shin-Etsu Chemical Co Ltd) was weighed and transferred (while stirring) to the container with heated reverse osmosis water. The solution was cooled down until a clear solution was obtained (an ice bath was used). The solution was stored refrigerated (set to 2-8° C.) until used. Unused reference item/vehicle was discarded when not needed anymore. To make a 0.2 w/v % suspension of COMPOUND A, an appropriate amount of the test item was weighed. A small volume of vehicle was added to slowly wet the test item. The appropriate volume of vehicle was added to reach the final volume and the formulation was homogenized using a homogenizer until a uniform suspension was achieved and stirred for 30 to 59 minutes. The 0.2 w/v % suspension was then diluted with the 0.5 w/v % MC in reverse osmosis water solution to make 0.12, 0.06 and 0.006 w/v % suspensions. However, on Oct. 1, 2015, the 1.2 mg/mL formulation was prepared by dissolving the appropriate amount of COMPOUND A in the vehicle, instead of diluting the 2 mg/mL formulation to reach the appropriate concentration. This deviation had no impact on the study since the appropriate concentration was prepared.
(§2) After suitable acclimation to the dosing procedure, the reference item (0.5% methylcellulose (MC) in reverse osmosis water) was administered once by oral gavage during Phase 1 of the study. The objective of Phase 1 was to confirm the EEG morphologies in all animals before and after dosing procedures. The traces generated during Phase 1 were used for interpretation of Phase 2 data. Beginning 1 day later, the reference item or COMPOUND A was administered once daily by oral gavage for 90 days during Phase 2 as shown in Table 7.
(§3) Clinical signs (ill health, behavioral changes, etc.) were recorded on surviving animals twice daily during all phases of study and monitored continuously for at least 16 hours after the 1st, 3rd, 7th, 14th and 28th dose administration in Phase 2, using digital cameras (to minimize stress for the animals) or using direct observation when needed or during dose administration. Additional clinical observations were performed when deemed necessary.
(§4) EEGs and EMGs were obtained from the animals using telemetry transmitter leads inserted subcutaneously using bipolar derivations (EMG, C4-O2 and Cz-Oz).
(§5) EEG and EMG monitoring was recorded continuously (except during study designated procedures or other procedures such as data backup) from at least 72 hours prior to the first dose of Phase 1 to at least 24 hours after the 28th dose of Phase 2. EEG and EMG monitoring was also recorded continuously (except during study designated procedures or other procedures such as data backup) for a period of at least 36 hours (from at least 12 hours prior to dosing until at least 24 hours post-dosing) once in the 8th week of dosing and once towards the end of the dosing period (13th week of dosing) in Phase 2.
(§6) Using the NeuroScore software (Data Science International), EEGs were analyzed from at least 24 hours prior to the first dose of Phase 1 to at least 24 hours after the 28th dose in Phase 2, and for a period of at least 36 hours (from at least 12 hours prior to dosing until at least 24 hours post-dosing) once in the 8th week of dosing and once towards the end of the dosing period (13th week of dosing) in Phase 2. […] EMGs were used to aid in the interpretation of the EEG data.
(§7) EEGs were reviewed by the Neurologist at the following timepoints: 1-1.5, 2.5-5.5, and 7-7.5 hours following the 1st, 3rd, 7th, 14th and 28th dose administration in Phase 2. The observance of abnormal behaviors/convulsions in individual animals by laboratory personnel also triggered an EEG review for approximately the same time period during which the abnormal behavior was witnessed. […]

The subject of data set [2] is cynomolgus monkeys. The data set is described as above. The data set is classed as in vivo, Monkey (Macaca fascicularis). The method, then:
as §1, §2, §3, §4, §5, §6, §7

As a reminder, the NOAEL is the highest dose or exposure tested at which no adverse effect was seen.

Like-named read-outs stand apart in the source and are kept apart here.

With `CC1=CN2CCS(=O)(=O)N=C2C(c2ccc(OC3CCCCC3)cc2)=N1` [COMPOUND A, 9-[4-(Cyclohexyloxy)phenyl]-7-methyl-3,4-dihydropyrazino[2,1-c][1,2,4]thiadiazine 2,2-dioxide], the NOAEL at 13 weeks was 3 mg/kg/day in data set [1] (female, females) and 10 mg/kg/day in data set [1] (male, males). Further, the qEEG total power result in data set [2] (0.3 and 3 mg/kg/day, after 2nd and 27th dose) is recorded as “associated with an increase in total EEG power”. In addition, the “clinical signs and EEG” value in data set [2] (0.3 or 3.0 mg/kg/day, males or females) was “no adverse clinical signs or abnormal EEG changes”. For the same compound, the clinical signs result in data set [2] (females, 6.0 mg/kg/day) is “myoclonic jerks, decreased activity, weakness, and uncoordination were observed”; in data set [2] (females, 10.0 mg/kg/day), “salivation, excessive licking, decreased activity, weakness, lying on cage floor, nystagmus, uncoordination, muscle twitches and myoclonic jerks were observed”; in data set [2] (males, 10 mg/kg/day), “decreased activity, tremors and circling were observed at 10 mg/kg/day but were not considered adverse”. Further, in data set [2] (females, 10.0 mg/kg/day), the “generalized seizures (EEG)” value is “Self-limiting generalized seizures, confirmed by EEG, were observed in two female monkeys”.
